# Test results as given in patent publication US20240246942A1, “KINASE INHIBITORS FOR THE TREATMENT OF NEURODEGENERATIVE DISEASES” (priority 2020, published 2024).
# What was measured:
# Test in all cases: biochemical
# [1] = biological target: T1, panel of 374 wild-type kinases (Homo sapiens, UniProt O75676); conditions: read-out: % Enzyme Activity (relative to DMSO controls), MSK2/RPS6KA4
# T1 construct: purchased Reaction Biology Corporation
# [2] = biological target: T2, panel of 374 wild-type kinases (Homo sapiens, UniProt P50613); conditions: read-out: % Enzyme Activity (relative to DMSO controls), CDK7/cyclin H
# T2 construct: purchased Reaction Biology Corporation
# T2 sequence (P50613 whole entry): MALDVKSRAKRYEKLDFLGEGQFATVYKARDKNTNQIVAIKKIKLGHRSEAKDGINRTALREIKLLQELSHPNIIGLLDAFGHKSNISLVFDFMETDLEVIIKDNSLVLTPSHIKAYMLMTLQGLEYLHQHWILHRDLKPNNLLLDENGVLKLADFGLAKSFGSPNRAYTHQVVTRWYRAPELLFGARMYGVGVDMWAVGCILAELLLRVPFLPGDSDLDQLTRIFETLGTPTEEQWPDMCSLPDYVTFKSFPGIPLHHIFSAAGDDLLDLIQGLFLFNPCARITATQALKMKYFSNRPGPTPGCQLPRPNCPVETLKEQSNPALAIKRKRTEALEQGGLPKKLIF
# [3] = biological target: T3, panel of 374 wild-type kinases (Homo sapiens, UniProt Q02750); conditions: read-out: % Enzyme Activity (relative to DMSO controls), MEK1
# T3 construct: purchased Reaction Biology Corporation
# T3 sequence (Q02750 whole entry): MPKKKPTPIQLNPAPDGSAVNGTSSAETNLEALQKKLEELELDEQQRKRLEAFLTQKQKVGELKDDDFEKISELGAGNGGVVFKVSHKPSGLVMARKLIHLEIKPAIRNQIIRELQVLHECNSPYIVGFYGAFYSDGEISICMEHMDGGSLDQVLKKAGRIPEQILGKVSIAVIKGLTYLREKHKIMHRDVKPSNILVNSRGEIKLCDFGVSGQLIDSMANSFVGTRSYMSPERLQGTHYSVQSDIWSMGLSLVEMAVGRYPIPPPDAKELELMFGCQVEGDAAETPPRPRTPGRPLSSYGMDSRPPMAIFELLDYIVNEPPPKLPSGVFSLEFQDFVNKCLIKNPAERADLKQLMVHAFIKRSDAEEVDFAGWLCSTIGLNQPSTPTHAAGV
# [4] = biological target: T4, panel of 374 wild-type kinases (Homo sapiens, UniProt Q13163); conditions: read-out: % Enzyme Activity (relative to DMSO controls), MEK5
# T4 construct: purchased Reaction Biology Corporation
# T4 sequence (Q13163 1-448): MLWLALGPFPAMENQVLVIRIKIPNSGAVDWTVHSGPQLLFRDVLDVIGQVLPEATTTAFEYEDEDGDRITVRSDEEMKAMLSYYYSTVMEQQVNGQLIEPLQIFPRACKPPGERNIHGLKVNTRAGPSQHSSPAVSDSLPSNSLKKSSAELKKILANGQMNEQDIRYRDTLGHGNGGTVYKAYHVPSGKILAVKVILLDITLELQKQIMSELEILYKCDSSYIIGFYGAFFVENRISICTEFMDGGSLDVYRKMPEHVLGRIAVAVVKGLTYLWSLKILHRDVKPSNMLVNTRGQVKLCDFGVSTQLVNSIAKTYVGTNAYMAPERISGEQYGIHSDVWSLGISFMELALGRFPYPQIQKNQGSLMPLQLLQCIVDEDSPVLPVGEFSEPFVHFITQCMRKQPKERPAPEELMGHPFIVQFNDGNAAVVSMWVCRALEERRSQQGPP
# [5] = biological target: T5, panel of 374 wild-type kinases (Homo sapiens, UniProt Q15418); conditions: read-out: % Enzyme Activity (relative to DMSO controls), kinase RSK1
# T5 construct: purchased Reaction Biology Corporation
# T5 sequence (Q15418 whole entry): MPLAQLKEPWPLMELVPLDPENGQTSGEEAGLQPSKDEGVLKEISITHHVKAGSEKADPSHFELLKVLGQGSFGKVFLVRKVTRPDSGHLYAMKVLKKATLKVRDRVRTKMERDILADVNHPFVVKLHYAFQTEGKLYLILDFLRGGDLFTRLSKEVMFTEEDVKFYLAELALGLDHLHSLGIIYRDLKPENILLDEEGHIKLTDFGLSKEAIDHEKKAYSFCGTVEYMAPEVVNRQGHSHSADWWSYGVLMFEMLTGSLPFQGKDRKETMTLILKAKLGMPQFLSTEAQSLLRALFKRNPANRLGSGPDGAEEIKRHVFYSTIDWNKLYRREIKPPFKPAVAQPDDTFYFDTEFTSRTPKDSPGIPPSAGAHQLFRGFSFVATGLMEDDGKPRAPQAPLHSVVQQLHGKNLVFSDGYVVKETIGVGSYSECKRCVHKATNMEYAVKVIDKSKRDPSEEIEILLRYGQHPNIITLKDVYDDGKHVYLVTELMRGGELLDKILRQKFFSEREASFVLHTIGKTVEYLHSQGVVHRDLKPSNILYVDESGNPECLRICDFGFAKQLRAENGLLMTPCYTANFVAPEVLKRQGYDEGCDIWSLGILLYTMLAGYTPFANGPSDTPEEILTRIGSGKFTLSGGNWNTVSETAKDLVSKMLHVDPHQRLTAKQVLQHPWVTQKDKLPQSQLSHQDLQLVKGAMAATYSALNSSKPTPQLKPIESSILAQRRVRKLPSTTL
# [6] = biological target: T6, panel of 374 wild-type kinases (Homo sapiens, UniProt Q15569); conditions: read-out: % Enzyme Activity (relative to DMSO controls), kinase TESK1
# T6 construct: purchased Reaction Biology Corporation
# T6 sequence (Q15569 whole entry): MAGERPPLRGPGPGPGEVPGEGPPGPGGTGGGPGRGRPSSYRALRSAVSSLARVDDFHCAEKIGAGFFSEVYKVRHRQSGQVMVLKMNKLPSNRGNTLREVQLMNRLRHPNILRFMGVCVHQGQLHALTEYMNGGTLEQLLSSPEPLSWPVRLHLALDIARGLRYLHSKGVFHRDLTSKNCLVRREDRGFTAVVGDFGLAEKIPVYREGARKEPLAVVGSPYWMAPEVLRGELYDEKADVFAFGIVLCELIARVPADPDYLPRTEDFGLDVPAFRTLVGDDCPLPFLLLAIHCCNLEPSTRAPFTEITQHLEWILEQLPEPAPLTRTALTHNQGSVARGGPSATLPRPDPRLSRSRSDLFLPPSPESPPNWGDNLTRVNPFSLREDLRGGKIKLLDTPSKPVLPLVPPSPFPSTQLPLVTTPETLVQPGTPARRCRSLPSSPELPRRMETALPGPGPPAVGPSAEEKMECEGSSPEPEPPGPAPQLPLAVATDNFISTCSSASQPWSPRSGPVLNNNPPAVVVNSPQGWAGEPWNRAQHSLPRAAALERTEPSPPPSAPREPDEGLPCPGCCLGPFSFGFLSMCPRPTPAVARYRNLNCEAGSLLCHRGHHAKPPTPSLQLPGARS
# [7] = biological target: T7, panel of 374 wild-type kinases (Homo sapiens, UniProt Q6VAB6); conditions: read-out: % Enzyme Activity (relative to DMSO controls), KSR2
# T7 construct: purchased Reaction Biology Corporation
# T7 sequence (Q6VAB6 1-950): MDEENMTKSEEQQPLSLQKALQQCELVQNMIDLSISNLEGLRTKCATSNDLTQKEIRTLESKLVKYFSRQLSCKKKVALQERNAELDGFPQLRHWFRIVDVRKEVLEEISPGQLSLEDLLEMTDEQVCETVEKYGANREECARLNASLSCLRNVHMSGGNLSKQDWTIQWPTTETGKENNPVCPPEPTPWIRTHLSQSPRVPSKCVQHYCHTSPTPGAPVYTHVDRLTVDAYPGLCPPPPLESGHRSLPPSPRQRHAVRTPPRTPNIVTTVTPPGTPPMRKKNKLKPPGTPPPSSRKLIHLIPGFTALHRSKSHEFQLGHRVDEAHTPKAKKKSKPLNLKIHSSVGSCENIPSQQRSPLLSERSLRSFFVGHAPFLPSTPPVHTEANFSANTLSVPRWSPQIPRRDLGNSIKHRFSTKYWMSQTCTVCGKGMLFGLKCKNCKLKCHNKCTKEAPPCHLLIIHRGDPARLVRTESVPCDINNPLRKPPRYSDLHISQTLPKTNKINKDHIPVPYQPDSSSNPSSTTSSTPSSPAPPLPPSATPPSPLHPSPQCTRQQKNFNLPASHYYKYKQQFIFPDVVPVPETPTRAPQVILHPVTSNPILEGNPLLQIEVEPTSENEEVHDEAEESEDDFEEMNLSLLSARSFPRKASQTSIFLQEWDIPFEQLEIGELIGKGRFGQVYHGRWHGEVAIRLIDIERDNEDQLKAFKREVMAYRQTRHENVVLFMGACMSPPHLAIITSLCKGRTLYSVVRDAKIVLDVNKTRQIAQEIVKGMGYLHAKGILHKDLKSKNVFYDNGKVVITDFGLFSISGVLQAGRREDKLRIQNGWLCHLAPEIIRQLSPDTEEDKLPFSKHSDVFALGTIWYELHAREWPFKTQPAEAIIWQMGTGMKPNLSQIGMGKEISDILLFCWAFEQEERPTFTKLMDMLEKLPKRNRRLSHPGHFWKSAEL
# [8] = biological target: T8, panel of 374 wild-type kinases (Homo sapiens, UniProt Q96L34); conditions: read-out: % Enzyme Activity (relative to DMSO controls), MARK4
# T8 construct: purchased Reaction Biology Corporation
# T8 sequence (Q96L34 1-752): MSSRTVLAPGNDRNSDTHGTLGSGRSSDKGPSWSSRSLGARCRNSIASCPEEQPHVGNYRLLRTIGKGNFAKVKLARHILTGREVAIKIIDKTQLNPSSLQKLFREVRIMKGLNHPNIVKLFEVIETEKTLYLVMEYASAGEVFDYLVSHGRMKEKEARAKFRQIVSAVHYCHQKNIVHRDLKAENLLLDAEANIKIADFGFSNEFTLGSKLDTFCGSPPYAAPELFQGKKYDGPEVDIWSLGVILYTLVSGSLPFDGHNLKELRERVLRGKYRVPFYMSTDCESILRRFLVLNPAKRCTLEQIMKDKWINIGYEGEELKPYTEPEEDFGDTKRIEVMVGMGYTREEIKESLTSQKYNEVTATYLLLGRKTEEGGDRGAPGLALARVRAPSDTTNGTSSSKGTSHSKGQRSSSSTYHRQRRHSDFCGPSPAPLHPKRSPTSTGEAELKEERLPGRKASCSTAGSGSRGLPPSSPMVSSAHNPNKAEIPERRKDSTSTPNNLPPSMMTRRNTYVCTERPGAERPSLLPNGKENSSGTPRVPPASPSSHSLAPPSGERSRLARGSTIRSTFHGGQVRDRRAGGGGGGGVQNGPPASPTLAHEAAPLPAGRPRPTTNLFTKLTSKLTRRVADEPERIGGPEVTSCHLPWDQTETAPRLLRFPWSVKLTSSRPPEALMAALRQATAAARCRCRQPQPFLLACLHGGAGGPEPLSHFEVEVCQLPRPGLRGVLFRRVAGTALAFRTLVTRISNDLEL
# [9] = biological target: T9, panel of 374 wild-type kinases (Homo sapiens, UniProt Q9H422); conditions: read-out: % Enzyme Activity (relative to DMSO controls), HIPK3
# T9 construct: purchased Reaction Biology Corporation
# T9 sequence (Q9H422 whole entry): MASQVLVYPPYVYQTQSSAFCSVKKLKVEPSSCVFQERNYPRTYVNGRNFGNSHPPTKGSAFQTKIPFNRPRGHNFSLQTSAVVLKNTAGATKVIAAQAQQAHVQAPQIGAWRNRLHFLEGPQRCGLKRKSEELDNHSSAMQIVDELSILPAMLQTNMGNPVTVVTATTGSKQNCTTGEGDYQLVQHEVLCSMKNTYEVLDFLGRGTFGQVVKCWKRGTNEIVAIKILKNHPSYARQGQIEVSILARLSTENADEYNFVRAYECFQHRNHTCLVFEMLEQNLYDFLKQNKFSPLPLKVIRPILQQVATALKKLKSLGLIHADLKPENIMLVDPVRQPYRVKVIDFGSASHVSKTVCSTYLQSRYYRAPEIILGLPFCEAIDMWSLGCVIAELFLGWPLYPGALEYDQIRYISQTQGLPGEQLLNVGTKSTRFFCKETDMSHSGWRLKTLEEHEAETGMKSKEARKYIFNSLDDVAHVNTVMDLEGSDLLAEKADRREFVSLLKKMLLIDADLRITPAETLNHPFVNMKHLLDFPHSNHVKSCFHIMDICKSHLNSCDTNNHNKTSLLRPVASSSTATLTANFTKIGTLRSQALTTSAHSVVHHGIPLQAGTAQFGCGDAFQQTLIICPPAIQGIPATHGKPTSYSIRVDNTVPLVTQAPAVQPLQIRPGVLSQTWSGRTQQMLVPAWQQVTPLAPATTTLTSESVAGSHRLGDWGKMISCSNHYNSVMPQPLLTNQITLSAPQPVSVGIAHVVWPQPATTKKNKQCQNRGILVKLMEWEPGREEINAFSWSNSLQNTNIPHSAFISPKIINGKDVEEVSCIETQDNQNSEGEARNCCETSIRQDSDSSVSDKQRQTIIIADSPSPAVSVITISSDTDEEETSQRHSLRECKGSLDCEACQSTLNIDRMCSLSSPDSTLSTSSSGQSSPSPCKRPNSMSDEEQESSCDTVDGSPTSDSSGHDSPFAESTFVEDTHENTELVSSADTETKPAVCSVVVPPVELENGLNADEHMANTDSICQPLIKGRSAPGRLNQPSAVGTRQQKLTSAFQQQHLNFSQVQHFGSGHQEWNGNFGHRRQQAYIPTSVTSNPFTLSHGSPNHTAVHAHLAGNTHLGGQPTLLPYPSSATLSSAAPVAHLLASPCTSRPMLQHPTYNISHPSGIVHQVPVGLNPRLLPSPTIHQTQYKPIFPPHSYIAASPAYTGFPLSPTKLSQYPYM
# T1 sequence (O75676 whole entry): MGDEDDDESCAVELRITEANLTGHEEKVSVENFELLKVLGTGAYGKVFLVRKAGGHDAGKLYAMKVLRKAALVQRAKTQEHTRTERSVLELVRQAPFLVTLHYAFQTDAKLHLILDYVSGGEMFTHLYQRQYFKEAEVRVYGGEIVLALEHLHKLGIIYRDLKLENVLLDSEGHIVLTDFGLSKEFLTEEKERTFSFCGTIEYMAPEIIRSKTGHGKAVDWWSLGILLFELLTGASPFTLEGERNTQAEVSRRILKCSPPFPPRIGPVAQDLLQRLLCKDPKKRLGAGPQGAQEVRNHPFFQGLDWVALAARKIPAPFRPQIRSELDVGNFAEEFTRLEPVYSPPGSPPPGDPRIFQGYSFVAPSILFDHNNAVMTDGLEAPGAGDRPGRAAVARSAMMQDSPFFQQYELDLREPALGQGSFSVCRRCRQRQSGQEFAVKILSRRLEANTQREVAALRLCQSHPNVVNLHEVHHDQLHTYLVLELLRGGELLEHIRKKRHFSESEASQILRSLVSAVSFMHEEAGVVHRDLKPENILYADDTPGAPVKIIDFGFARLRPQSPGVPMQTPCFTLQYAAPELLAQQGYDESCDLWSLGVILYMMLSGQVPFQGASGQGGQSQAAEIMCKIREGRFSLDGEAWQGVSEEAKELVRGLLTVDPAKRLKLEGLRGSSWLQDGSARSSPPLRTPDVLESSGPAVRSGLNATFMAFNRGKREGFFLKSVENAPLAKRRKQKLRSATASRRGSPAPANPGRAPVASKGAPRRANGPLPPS
Compound,remaining activity at 5 µM [1] [%],remaining activity at 5 µM [2] [%],remaining activity at 5 µM [3] [%],remaining activity at 5 µM [4] [%],remaining activity at 5 µM [5] [%],remaining activity at 5 µM [6] [%],remaining activity at 5 µM [7] [%],remaining activity at 5 µM [8] [%],remaining activity at 5 µM [9] [%],remaining activity at 10 µM ([1]; 10 uM) [%],remaining activity at 10 µM ([2]; 10 uM) [%],remaining activity at 10 µM ([3]; 10 uM) [%],remaining activity at 10 µM ([4]; 10 uM) [%],remaining activity at 10 µM ([5]; 10 uM) [%],remaining activity at 10 µM ([6]; 10 uM) [%],remaining activity at 10 µM ([7]; 10 uM) [%],remaining activity at 10 µM ([8]; 10 uM) [%],remaining activity at 10 µM ([9]; 10 uM) [%]
"O=C(Nc1cnn(-c2csc(C(=O)NC3COC3)c2)c1)Nc1ccccc1Cl [Compound 17, 4-(4-(3-(2-chlorophenyl)ureido)-1H-pyrazol-1-yl)-N-(oxetan-3-yl)thiophene-2-carboxamide]",90.7,99.7,104,98.2,92.4,101,107,108,97.6,,,,,,,,,
"Cc1sc(C(=O)NC2COC2)cc1-n1cc(NC(=O)Nc2c(F)cccc2Cl)cn1 [Compound 27, 4-(4-(3-(2-chloro-6-fluorophenyl)ureido)-1H-pyrazol-1-yl)-5-methyl-N-(oxetan-3-yl)thiophene-2-carboxamide]",,,,,,,,,,105,103,95.5,96.8,93.2,88.7,99.2,108,88.5
"O=C(Nc1cnn(-c2csc(C(=O)NC3COC3)c2)c1)Nc1c(F)cccc1Cl [Compound 25, 4-(4-(3-(2-chloro-6-fluorophenyl)ureido)-1H-pyrazol-1-yl)-N-(oxetan-3-yl)thiophene-2-carboxamide]",99.8,95.8,107,103,96.3,91,92.7,97.9,98.8,,,,,,,,,
